One block for each molecule: values may come before it.
Experiments:
Wistar male rats = test: Evaluation of catalepsy (bar test); type: in vivo, rat
Experimental: The test was performed on Wistar male rats (N=7 animals); catalepsy was evaluated by means of a metal bar measuring 0.6 cm in diameter positioned at a distance of 10 cm from the work surface. The substance studied, in the form of maleic acid salt (ST1699), was administered subcutaneously 30 minutes prior to the evaluation. The subsequent evaluation times were 60, 90, 120, 180, 240, and 300 minutes after administration.
By means of the test used for evaluating catalepsy in the rat, ST1699 affinity for the D2 receptor subtype of the nigrostriatal dopaminergic system was verified.
Table 4 gives the percentages of animals presenting catalepsy at the various different times after administration of subacute doses of the study compound.

H1 histamine receptor = molecular target: T1, H1 histamine receptor (Rattus norvegicus, UniProt P31390); test: Interaction with H1 receptors, [3H]-pyrilamine binding, rat cortex membranes; settings: Table 1; mean and standard deviation; read-out: H1 Ki ± ds
T1 construct: from tissue; host or cells: rat cortex membranes
T1 sequence (P31390 whole entry): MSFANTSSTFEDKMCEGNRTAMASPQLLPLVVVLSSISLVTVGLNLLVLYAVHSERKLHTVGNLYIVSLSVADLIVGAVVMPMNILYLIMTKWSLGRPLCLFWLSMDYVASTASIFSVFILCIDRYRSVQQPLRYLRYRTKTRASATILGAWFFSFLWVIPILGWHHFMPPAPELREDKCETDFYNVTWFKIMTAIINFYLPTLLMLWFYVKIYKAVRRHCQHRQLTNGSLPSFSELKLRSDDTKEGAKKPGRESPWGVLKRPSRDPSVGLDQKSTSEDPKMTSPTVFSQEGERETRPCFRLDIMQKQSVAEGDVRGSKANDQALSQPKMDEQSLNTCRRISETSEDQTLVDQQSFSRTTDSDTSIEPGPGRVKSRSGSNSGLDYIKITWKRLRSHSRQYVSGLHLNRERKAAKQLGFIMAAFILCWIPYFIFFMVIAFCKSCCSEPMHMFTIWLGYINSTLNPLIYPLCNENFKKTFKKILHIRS

5-HT2 versus D2 receptor = test: Classification of typical and atypical antipsychotics by 5-HT2 versus D2 pKi ratio and Log Y score; settings: for LogY: Log Y score smaller than 6.48 = atypical profile

Compound: O=C(CCCN1CCC(O)(c2ccc(Cl)cc2)CC1)c1ccc(F)cc1 [Haloperidol, haloperidol, reference compound]
- percentage of animals presenting catalepsy (Wistar male rats; 0.2 mg/kg, 30 min after administration): 0%
- percentage of animals presenting catalepsy (Wistar male rats; 0.2 mg/kg, 60 min after administration): 70%
- percentage of animals presenting catalepsy (Wistar male rats; 0.2 mg/kg, 90 min after administration): 100%
- percentage of animals presenting catalepsy (Wistar male rats; 0.2 mg/kg, 120 min after administration): 100%
- percentage of animals presenting catalepsy (Wistar male rats; 0.2 mg/kg, 180 min after administration): 100%

- Ki (H1 histamine receptor): 2.7 ± 0.02 nM
- LogY (5-HT2 versus D2 receptor): 8.20
Compound: CN1CCN(C2=Cn3cccc3Sc3ccc(Cl)cc32)CC1 [ST1508, 7-chloro-9-(4-methyl-1-piperazinyl)pyrrolo[2,1-b][1,3]benzothiazepine]

Compound: CN1CCN(C2=Cn3cccc3Sc3ccc(Cl)cc32)CC1 [ST1699, 7-chloro-9-(4-methyl-1-piperazinyl)pyrrolo[2,1-b][1,3]benzothiazepine]
- percentage of animals presenting catalepsy (Wistar male rats; 0.3 mg/kg subcutaneously, 30 min after administration): 0%
- percentage of animals presenting catalepsy (Wistar male rats; 0.3 mg/kg subcutaneously, 60 min after administration): 0%
- percentage of animals presenting catalepsy (Wistar male rats; 0.3 mg/kg subcutaneously, 90 min after administration): 17%
- percentage of animals presenting catalepsy (Wistar male rats; 0.3 mg/kg subcutaneously, 120 min after administration): 17%
- percentage of animals presenting catalepsy (Wistar male rats; 0.3 mg/kg subcutaneously, 180 min after administration): 33%
- percentage of animals presenting catalepsy (Wistar male rats; 0.6 mg/kg subcutaneously, 30 min after administration): 33%
- percentage of animals presenting catalepsy (Wistar male rats; 0.6 mg/kg subcutaneously, 60 min after administration): 66%
- percentage of animals presenting catalepsy (Wistar male rats; 0.6 mg/kg subcutaneously, 90 min after administration): 83%
- percentage of animals presenting catalepsy (Wistar male rats; 0.6 mg/kg subcutaneously, 120 min after administration): 100%
- percentage of animals presenting catalepsy (Wistar male rats; 0.6 mg/kg subcutaneously, 180 min after administration): 100%
- occurrence of catalepsy (Wistar male rats; in words, highest dose among those used (0.6 mg/kg), effects comparable to 0.2 mg/kg of haloperidol): induced the occurrence of catalepsy

- LogY (5-HT2 versus D2 receptor): 3.19
- binding affinity at 5 HT2 receptor compared with D2 dopamine receptor (5-HT2 versus D2 receptor; in words): greater than D2 dopamine receptor
Compound: Cc1ccc2n1C=C(N1CCN(C)CC1)c1ccccc1S2 [ST2092, 1-Methyl-9-(4-methylpiperazin-1-yl)pyrrolo[2,1-b][1,3]benzothiazepine]
